Data on two substances can be found in patent publication EP2255814A1, “AGENT FOR INCREASING THE QUANTITY OF HYALURONIC ACID” (Nagase ChemteX Corporation, priority 2008, dated 2009).

One test relates to hyaluronan synthase HAS2. The test can be described thus: Augmentation effect on mRNA expression of hyaluronan synthase HAS2 (semi-quantitative RT-PCR). Format: cell-based. As to conditions: human fibroblast NHDF(AD), phospholipid liposome in culture medium, 24 hours; concentrations only in Fig. 1. Here is the method:
Normal human fibroblasts (NHDF(AD); Kurabo Industries Ltd.) were seeded at 8×10^5/well in 6-well plates. After 24-hour preculture, the culture media were removed and replaced with culture media each containing a different phospholipid liposome prepared in Preparation Examples 2 to 4. The culture was maintained for 24 hours. Then, after removal of the culture medium and addition of 1 mL of ISOGEN (NIPPON GENE), RNA was extracted from the cells according to the usual method described in the attachment of ISOGEN.
cDNA preparation was performed using SuperScriptIII First-Strand Synthesis System for RT-PCR (Invitrogen) according to the operating procedures described in the attachment of the kit. RT-PCR was performed using primers below. HAS2 (Forward): […] (SEQ ID NO: 1) HAS2 (Reverse): […] (SEQ ID NO: 2) β-actin (Forward): […] (SEQ ID NO: 3) β-actin (Reverse): […] (SEQ ID NO: 4)
Using each of the obtained cDNA and the HAS2 primer set, PCR was performed for 29 cycles of 94°C for 1 min, 58°C for 1 min, and 72°C for 1 min. […] After completion of PCR, the PCR product was analyzed by electrophoresis in 1.5% agarose gel. Each band strength was determined by densitometry and the degree of increase in HAS2 mRNA expression was semi-quantitatively assessed by comparison of the HAS2/β-actin ratios between samples and the control. […]

The test system of test [1] is Normal human dermal fibroblasts (NHDF(AD)). Nature of the test: Hyaluronan production promoting effect in fibroblasts (ELISA of culture supernatant). The class given is cell-based. As to conditions: phospholipid liposome at 100 µg/mL, 24 hours. On the procedure: Normal human dermal fibroblasts (NHDF(AD); Kurabo Industries, Ltd.) were seeded at 2×10^5/well in 24-well plates. After 24-hour preculture, the culture media were removed and replaced with culture media each containing a different phospholipid liposome at 100 µg/mL, i.e. , the PI-PS containing liposome obtained in Preparation Example 2, the PI liposome obtained in Preparation Example 3, or the PS liposome obtained in Preparation Example 4. The culture was maintained for 24 hours. The culture supernatant was collected and hyaluronan therein was quantified by the ELISA method.
A hyaluronan binding protein (HABP; SEIKAGAKU CORPORATION) was added at 2 µg/mL to 96-well plates, which were then allowed to stand at 4°C for 24 hours. After this, the wells were washed. Blocking was performed at 4°C for 24 hours using Block Ace (Dainippon Sumitomo Pharma Co., Ltd.). After the wells were washed, a hyaluronan standard (Wako Pure Chemical Industries, Ltd.) or the culture supernatant was added to the wells and 1-hour incubation was performed at 37°C. After the wells were washed, biotinylated HABP (SEIKAGAKU CORPORATION) was added to the wells and 2-hour incubation was performed at 37°C. […] After the reaction at 37°C for 30 minutes, the absorbance at 405 nm was measured.

In the case of L-α-phosphatidylserine [PS], in the test on hyaluronan synthase HAS2, the “mRNA expression of HAS2 (HAS2/β-actin ratio relative to control cells)” value was “significantly increased”. For the same substance, the production of hyaluronan entry in test [1] is given as “significantly increased”.
As to L-α-phosphatidylinositol Na [PI], the “mRNA expression of HAS2 (HAS2/β-actin ratio relative to control cells)” value with hyaluronan synthase HAS2 is listed as “significantly increased”. Moreover, in test [1], the production of hyaluronan result is given as “significantly increased”.
